Six compounds from PubChem BioAssay (NCI) can be followed below.

The structures appear in SMILES notation.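 Where inhibition never reached the appropriate level, the endpoint shown equals the highest concentration tested. Otherwise, values were interpolated linearly from a five-concentration, 48-hour dose response in 96-well plates. TGI denotes the concentration required for complete inhibition of growth.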

Some test systems named below: DMS 273 small cell lung; SNB-78 CNS; M19-MEL melanoma; HOP-18 NSCLC; RXF-631 renal; LXFL 529 NSCLC; SN12K1 renal; MDA-N; P388/ADR leukemia; P388 leukemia; BT-549 breast; MCF7 breast.
Holding throughout (experiment): NCI tumour cell line growth inhibition, 48 h

With `CN(CCc1ccccn1)c1nc(=[N+](C)C)ss1`, the TGI in the experiment with DMS 273 small cell lung, in the experiment with SNB-78 CNS, in the experiment with M19-MEL melanoma, with HOP-18 NSCLC, in the experiment with RXF-631 renal and with LXFL 529 NSCLC was > 100 µM throughout.

Turning to `O=C(O)/C(Cl)=C(\Cl)C(=O)NC1C2CC3CC(C2)CC1C3` (centres undefined), the TGI in the experiment on DMS 273 small cell lung, in the experiment with SNB-78 CNS, in the experiment with M19-MEL melanoma, with HOP-18 NSCLC, with RXF-631 renal and in the experiment with LXFL 529 NSCLC was > 100 µM in each case.

With `CN1C(c2ccccc2)CS(=O)(=O)CS1(=O)=O` (centres undefined), the TGI in the experiment with DMS 273 small cell lung, in the experiment on SNB-78 CNS, in the experiment with M19-MEL melanoma, in the experiment with HOP-18 NSCLC, with RXF-631 renal and in the experiment with LXFL 529 NSCLC was > 100 µM each time.

For `C[C@@H](CN1CC(=O)NC(=O)C1)N1CC(=O)NC(=O)C1`, the TGI in the experiment on DMS 273 small cell lung came out at 626 µM; with SN12K1 renal it was 541 µM; in the experiment on SNB-78 CNS, 1480 µM; with M19-MEL melanoma, 998 µM; in the experiment with MDA-N, 680 µM; in the experiment on HOP-18 NSCLC, 1180 µM. The TGI was 2180 µM in the experiment with P388/ADR leukemia, 2500 µM in the experiment on P388 leukemia, 783 µM with BT-549 breast and 498 µM in the experiment on MCF7 breast.

As for `O=C1c2ccccc2NC1(c1ccccc1)c1c(-c2ccccc2)[nH]c2ccccc12` (centres undefined), the TGI with DMS 273 small cell lung, in the experiment with SNB-78 CNS, in the experiment with M19-MEL melanoma, with HOP-18 NSCLC, with RXF-631 renal and with LXFL 529 NSCLC was > 100 µM in each case.

As for `COc1cc2c(cc1OC)C(OC)N(C)c1c-2ccc2cc3c(cc12)OCO3` (centres undefined), the TGI in the experiment on DMS 273 small cell lung is 14.4 µM; in the experiment with SN12K1 renal, 2.05 µM; in the experiment with SNB-78 CNS, > 75 µM; in the experiment with M19-MEL melanoma it was 4.08 µM; in the experiment on MDA-N, > 75 µM; with HOP-18 NSCLC, 68.5 µM. The TGI was 13 µM in the experiment with P388/ADR leukemia, 4.98 µM with P388 leukemia, > 75 µM with BT-549 breast and 12.6 µM with MCF7 breast.
